Measurements as given in article PMC9246869, “Allosteric inhibition of PPM1D serine/threonine phosphatase via an altered conformational state” (Nature Communications, 2022).
“And” between values parts separate entries of the source, which are not always exact repeats. Equal values may be shown once.

Columns and labels:
PPM1D1–420 [1] = target: T1, PPM1D1–420 (Homo sapiens, UniProt O15297); test: p38 MAPK enzymatic assay (LC/MS, dephosphorylation of T180); format: biochemical; conditions: for P38 Assay, signal relative to 0 nM GSK (=100): PPM1D1-420, individual runs, listed as GSK
T1 construct: PPM1D1–420 was PCR-amplified from the synthesized gene with BsaI sites; His(6)-SUMO (N, cleaved yes); made in house; host or cells: E. coli BL21 (DE3)
T1 sequence (O15297 1-420): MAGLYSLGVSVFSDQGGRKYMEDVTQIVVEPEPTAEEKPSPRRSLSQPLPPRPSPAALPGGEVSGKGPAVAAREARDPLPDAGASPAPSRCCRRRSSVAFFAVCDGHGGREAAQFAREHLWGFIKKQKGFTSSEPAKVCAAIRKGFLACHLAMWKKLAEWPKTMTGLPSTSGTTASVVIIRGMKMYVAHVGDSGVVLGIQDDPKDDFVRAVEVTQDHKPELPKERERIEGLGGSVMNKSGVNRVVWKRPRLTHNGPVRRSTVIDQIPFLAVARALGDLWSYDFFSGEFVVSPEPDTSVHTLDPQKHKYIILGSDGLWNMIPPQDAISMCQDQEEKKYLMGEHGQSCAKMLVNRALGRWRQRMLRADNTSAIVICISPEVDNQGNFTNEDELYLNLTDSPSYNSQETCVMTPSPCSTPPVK
Protocol: To generate the double phosphorylated form of p38 MAPK for the LC/MS enzymatic PPM1D assay, 20 µM p38 MAPK was incubated with 100 nM MKK6 in 50 mM HEPES pH 7.4, 10 mM ATP, 40 mM MgCl2, and 100 µM TCEP at RT for 2 h. The reaction mixture was diluted 2-fold with 20 mM HEPES pH 7.4, 300 mM NaCl, 100 µM TCEP, and 1 mM MgCl2 and passed over a Superdex 200 26/600 column equilibrated with 20 mM HEPES pH 7.4, 150 mM NaCl, 100 µM TCEP, and 1 mM MgCl2 to remove excess ATP and MKK6 from the phosphorylated p38 MAPK (p38PP) protein. The protein was concentrated and stored in aliquots for single time usage at −80 °C.
The enzymatic activity of the PPM1D constructs was measured by quantifying the dephosphorylation of the substrate protein p38PP by LC/MS. Assays were run in 384-well plates (Axygen; #P-384-120SQ-C) in a final volume of 80 µL per well. The buffer consisted of 20 mM HEPES, 20 mM NaCl, 20 mM MgCl2 and 0.1 mM TCEP, at a pH of 7.5. The reaction was initiated by addition of the p38PP substrate to a solution containing 10 nM PPM1D to a final concentration of 300 nM for p38PP. The plate was then incubated at room temperature and the reaction quenched after 15 min increments with formic acid to a final concentration of 6% (v/v) up to 120 min. For IC50 measurements, the GSK2830371 compound was pre-incubated with the PPM1D constructs in a 2% DMSO-containing buffer for 10 min prior to the addition of the substrate and the reactions were quenched after 2 h. In both experiments, BSA was added to a final concentration of 0.2 µM during the quench step as a carrier protein and injection control for the LC/MS. The plate was then sealed and spun down at 1500 × g for 1 min prior to LC/MS analysis. Plates were analyzed within the same day of the quench step.
Substrate and product detection was achieved by multiple-reaction monitoring (MRM) using a Waters Acquity UPLC chromatography system connected to an Xevo TQ-XS mass spectrometer (Waters, Milford, MA). Source parameters were set as follows: polarity ES+, capillary 2.0 kV, cone voltage, 50 V; collision energy, 5 V; cone gas flow, 200 L/h; collision gas flow, 0.16 mL/min; source temperature, 150 °C; desolvation temperature, 500 °C; and desolvation gas flow, 800 L/h. Analytes were separated using an Agilent PLRP-S Reversed-Phase column (5 µm; 2.1 × 50 mm, 300 Å Agilent Technologies, Santa Clara, CA) at 60 °C. Sample storage temperature was set to 15 °C. Mobile phases consisted of 0.1% (v/v) formic acid (Millipore EMSURE) in LC/MS grade water (JTBaker) and 0.1% v/v formic acid in acetonitrile (Honeywell). Initial column conditions were set to […]. Proteins were eluted using a 1.5 min gradient of 5–98% acetonitrile at 0.4 ml/min. MassLynx and TargetLynx software (Waters, version 4.2) were used for sample acquisition and data analysis, respectively. Analytes were quantified by integration of peak areas under the curve using the transitions 941.10 to 941.05 m/z for P38PP (substrate) and 939.10 to 939.09 m/z for P38P (product). Areas were normalized for instrumental variation by dividing by the BSA peak area (1209.23 to 1209.2 m/z transition) measured in the same well.

PPM1D1–420 [2] = target: T1, PPM1D1–420; test: Isothermal titration calorimetry (ITC); format: binding; parameters: DH / DS: unit not given here; conditions: Fig 3F
Protocol: Assessments of the analog of GSK2830371 (analog 1d) binding to wild-type and mutant proteins were conducted using an Auto-iTC200 microcalorimeter (Malvern) (see section on synthesis of analog 1d below). The protein was dialyzed extensively into 25 mM HEPES (pH 7.4), 150 mM NaCl, 10 mM MgCl2 and 1 mM TCEP. The dialyzed protein was used to prepare fresh working solutions of protein (20 µM) and analog 1d (200 µM) in 2% DMSO (v/v) in the same buffer. Titrations were performed at 25 °C and consisted of a single initial injection of 0.4 µL, followed by 19 injections of 2 µL of compound into a sample cell containing wild-type or mutant PPM1D, with an interval of 150 s between successive injections. The reference power and stirring speed were set at […] and 1000 RPM, respectively. Heat of dilution and mixing were obtained from injections of analog 1d into ITC buffer lacking protein and subtracted from the integrated data before curve fitting. Thermodynamic data were analyzed using Origin 7.0 software and fitted by non-linear regression to the model for a single binding site.

Cc1ncc(Cl)cc1NCc1ccc(C(=O)N[C@@H](CC2CCCC2)C(=O)NC2CC2)s1 [GSK2830371]
IC50 (PPM1D1–420 [1]; PPM1D1–420, full length p38 MAPK substrate, LC/MS): ~6 nM
P38 Assay, signal relative to 0 nM GSK (=100) (PPM1D1–420 [1]; [GSK] 0.49 nM): 93.1001 and 100 and 88.922
P38 Assay, signal relative to 0 nM GSK (=100) (PPM1D1–420 [1]; [GSK] 0.98 nM): 86.1215 and 81.7339 and 63.3381
P38 Assay, signal relative to 0 nM GSK (=100) (PPM1D1–420 [1]; [GSK] 1.95 nM): 86.7639 and 71.6152 and 63.7723
P38 Assay, signal relative to 0 nM GSK (=100) (PPM1D1–420 [1]; [GSK] 3.9 nM): 51.5439 and 51.2694 and 46.219
P38 Assay, signal relative to 0 nM GSK (=100) (PPM1D1–420 [1]; [GSK] 7.8 nM): 29.2083 and 28.1523 and 24.0173
P38 Assay, signal relative to 0 nM GSK (=100) (PPM1D1–420 [1]; [GSK] 15.6 nM): 16.4584 and 13.8278 and 11.5309
P38 Assay, signal relative to 0 nM GSK (=100) (PPM1D1–420 [1]; [GSK] 31.2 nM): 11.2856 and 7.234 and 5.456
P38 Assay, signal relative to 0 nM GSK (=100) (PPM1D1–420 [1]; [GSK] 62.5 nM): 6.81 and 5.822 and 3.842
P38 Assay, signal relative to 0 nM GSK (=100) (PPM1D1–420 [1]; [GSK] 125 nM): 6.3041 and 6.187 and 2.5614
P38 Assay, signal relative to 0 nM GSK (=100) (PPM1D1–420 [1]; [GSK] 250 nM): 4.442 and 3.236 and 2.029
P38 Assay, signal relative to 0 nM GSK (=100) (PPM1D1–420 [1]; [GSK] 500 nM): 3.225 and 4.879 and 3.8956
DH (PPM1D1–420 [2]; Average of 3 trials): -3090.67
DS (PPM1D1–420 [2]; Average of 3 trials): 26.3
DH (PPM1D1–420 [2]; individual trials): -2879 and -3158 and -3235
DS (PPM1D1–420 [2]; individual trials): 27.7 and 25.8 and 25.4
